Source: PubChem BioAssay AID328 (DTP/NCI, 2004)
Where “and” joins values, the source holds several entries; their conditions need not be identical. Identical values can stand only once. Toxic doses and inconclusive results are not listed.

System: BDF1 mice, P388 leukemia ip, median survival T/C
Assay: NCI In Vivo Anticancer Drug Screen. Data for tumor model P388 Leukemia (intraperitoneal) in B6D2F1 (BDF1) mice
Settings: endpoint: median survival time, higher = longer survival
In short: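 Survival ratio, drug arm over vehicle arm, in mice with a transplanted tumour.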

[1] = dose: 25.0 mg/kg/injection, schedule: Q01DX009 (ip), vehicle: Klucel (hydroxypropylcellulose) (HPC)
[2] = dose: 100.0 mg/kg/injection, schedule: Q01DX001 (ip), vehicle: Klucel (hydroxypropylcellulose) (HPC)
[3] = dose: 200.0 mg/kg/injection, schedule: Q01DX001 (ip), vehicle: Klucel (hydroxypropylcellulose) (HPC)
[4] = dose: 25.0 mg/kg/injection, schedule: Q01DX009 (ip), vehicle: saline with Tween-80
[5] = dose: 50.0 mg/kg/injection, schedule: Q01DX009 (ip), vehicle: saline with Tween-80
[6] = dose: 100.0 mg/kg/injection, schedule: Q01DX009 (ip), vehicle: saline with Tween-80
[7] = dose: 200.0 mg/kg/injection, schedule: Q01DX009 (ip), vehicle: saline with Tween-80
[8] = dose: 50.0 mg/kg/injection, schedule: Q01DX009 (ip), vehicle: Klucel (hydroxypropylcellulose) (HPC)
[9] = dose: 100.0 mg/kg/injection, schedule: Q01DX009 (ip), vehicle: Klucel (hydroxypropylcellulose) (HPC)
[10] = dose: 200.0 mg/kg/injection, schedule: Q01DX009 (ip), vehicle: Klucel (hydroxypropylcellulose) (HPC)
[11] = dose: 50.0 mg/kg/injection, schedule: Q01DX009 (ip), vehicle: saline
[12] = dose: 100.0 mg/kg/injection, schedule: Q01DX009 (ip), vehicle: saline
[13] = dose: 12.5 mg/kg/injection, schedule: Q01DX009 (ip), vehicle: saline with Tween-80
[14] = dose: 100.0 mg/kg/injection, schedule: Q04DX003 (ip), vehicle: Klucel (hydroxypropylcellulose) (HPC)
[15] = dose: 200.0 mg/kg/injection, schedule: Q04DX003 (ip), vehicle: Klucel (hydroxypropylcellulose) (HPC)
[16] = dose: 400.0 mg/kg/injection, schedule: Q01DX009 (ip), vehicle: saline with Tween-80
[17] = dose: 400.0 mg/kg/injection, schedule: Q04DX003 (ip), vehicle: Klucel (hydroxypropylcellulose) (HPC)
[18] = dose: 25.0 mg/kg/injection, schedule: Q01DX009 (ip), vehicle: saline
[19] = dose: 12.5 mg/kg/injection, schedule: Q01DX009 (ip), vehicle: saline

`Cc1cc(=O)c2cc(N)ccc2[nH]1` was tested, and the T/C (dose: 25.0 mg/kg/injection, schedule: Q01DX009 (ip), vehicle: water) was 110 % of control, the T/C (dose: 50.0 mg/kg/injection, schedule: Q01DX009 (ip), vehicle: water) was 94 % of control and the T/C (dose: 50.0 mg/kg/injection, schedule: Q04DX003 (ip), vehicle: water) was 102 % of control. For the same compound, the T/C (dose: 100.0 mg/kg/injection, schedule: Q01DX009 (ip), vehicle: water) was 91 % of control, the T/C (dose: 100.0 mg/kg/injection, schedule: Q04DX003 (ip), vehicle: water) was 106 % of control and the T/C (dose: 200.0 mg/kg/injection, schedule: Q01DX009 (ip), vehicle: water) was 119 % of control. For the same compound, the T/C (dose: 200.0 mg/kg/injection, schedule: Q04DX003 (ip), vehicle: water) was 113 % of control, the T/C (dose: 400.0 mg/kg/injection, schedule: Q01DX009 (ip), vehicle: water) was 92 % of control and the T/C (dose: 400.0 mg/kg/injection, schedule: Q04DX003 (ip), vehicle: water) was 103 % of control.

For `CC[C@@]12CCCN3CC[C@]4(c5cccc(OC)c5N(C(C)=O)[C@@H]4CC1)[C@H]32`, the T/C (dose: 6.25 mg/kg/injection, schedule: Q01DX009 (ip), vehicle: Klucel (hydroxypropylcellulose) (HPC)) was 100 % of control, the T/C (dose: 12.5 mg/kg/injection, schedule: Q01DX009 (ip), vehicle: Klucel (hydroxypropylcellulose) (HPC)) was 95 % of control and the T/C [1] was 104 % of control. The T/C (dose: 50.0 mg/kg/injection, schedule: Q01DX001 (ip), vehicle: Klucel (hydroxypropylcellulose) (HPC)) was 108 % of control, the T/C [2] was 116 % of control and the T/C [3] was 91 % of control.

For `c1ccc(-c2nc3ncccn3n2)cc1`, the T/C [4] was 97 % of control, the T/C [5] was 106 % of control and 111 % of control and the T/C [6] was 104 % of control and 120 % of control. The T/C [7] was 104 % of control and 112 % of control.

With `O=C(O)c1ccccc1C(=O)O` (tested in a mixture with another compound) the T/C [8] was 89 % of control, the T/C [9] was 91 % of control and the T/C [10] was 96 % of control.

`CC1c2ccccc2N(S(=O)(=O)c2ccccc2)C1C` (stereo not drawn) was tested, and the T/C (dose: 100.0 mg/kg/injection, schedule: Q01DX009 (ip), vehicle: gum acacia) was 107 % of control, the T/C (dose: 200.0 mg/kg/injection, schedule: Q01DX009 (ip), vehicle: gum acacia) was 92 % of control and the T/C (dose: 400.0 mg/kg/injection, schedule: Q01DX009 (ip), vehicle: gum acacia) was 100 % of control.

In the case of `COc1ccc2c(c1)C(C)(C)Oc1cc3oc(C(=O)O)cc(=O)c3cc1-2`, the T/C (dose: 100.0 mg/kg/injection, schedule: Q04DX003 (ip), vehicle: saline with Tween-80) is reported as 104 % of control, the T/C (dose: 200.0 mg/kg/injection, schedule: Q04DX003 (ip), vehicle: saline with Tween-80) is reported as 101 % of control and the T/C (dose: 400.0 mg/kg/injection, schedule: Q04DX003 (ip), vehicle: saline with Tween-80) is reported as 104 % of control.

With `COC(=O)C(C)CN1CCCCCC1` (stereo not drawn) the T/C [11] was 109 % of control, the T/C [12] was 90 % of control and the T/C (dose: 200.0 mg/kg/injection, schedule: Q01DX009 (ip), vehicle: saline) was 109 % of control.

`CCN1CCCC(Nc2nc(Nc3cc(Cl)cc(Cl)c3)nc3ccc(Cl)cc23)C1` (stereo not drawn) was tested, and the T/C (dose: 6.25 mg/kg/injection, schedule: Q01DX009 (ip), vehicle: saline with Tween-80) was 122 % of control, the T/C [13] was 109 % of control and the T/C [4] was 109 % of control.

In the case of `Nc1ccc(OCc2ccc(C(=O)Nc3cccc(S(=O)(=O)F)c3)cc2)c(Cl)c1`, the T/C [6] is reported as 91 % of control, the T/C [14] is reported as 100 % of control and the T/C [7] is reported as 91 % of control. For the same compound, the T/C [15] was 100 % of control, the T/C [16] was 100 % of control and the T/C [17] was 100 % of control.

`COc1cc2ccc3c[n+]4ccccc4cc3c2cc1OC` was tested, and the T/C [1] was 102 % of control, the T/C [18] was 112 % of control and the T/C [8] was 116 % of control. The T/C [11] was 117 % of control, the T/C [12] was 114 % of control and the T/C (dose: 150.0 mg/kg/injection, schedule: Q01DX009 (ip), vehicle: Klucel (hydroxypropylcellulose) (HPC)) was 118 % of control.

`Clc1ccc(CNc2ncnc3[nH]ncc23)c(Cl)c1` was tested, and the T/C [5] was 104 % of control, the T/C [6] was 100 % of control and the T/C [7] was 90 % of control.

For `Cn1c(CC(O)(C(F)(F)F)C(F)(F)F)cc2ccccc21`, the T/C (dose: 100.0 mg/kg/injection, schedule: Q01DX001 (ip), vehicle: other) was 87 % of control and the T/C (dose: 400.0 mg/kg/injection, schedule: Q01DX001 (ip), vehicle: other) was 95 % of control.

With `CC(C)(C)c1ccc(OCc2cnc[nH]2)cc1` the T/C (dose: 100.0 mg/kg/injection, schedule: Q01DX001 (ip), vehicle: saline) was 113 % of control.

`O=C1c2cccc(O)c2C(=O)c2c(OC3OC(CO)C(OC4OC(CO)C(O)C(O)C4O)C(O)C3O)cccc21` (stereo not drawn) was tested, and the T/C (dose: 100.0 mg/kg/injection, schedule: Q04DX003 (ip), vehicle: saline) was 103 % of control, the T/C (dose: 200.0 mg/kg/injection, schedule: Q04DX003 (ip), vehicle: saline) was 119 % of control and the T/C (dose: 400.0 mg/kg/injection, schedule: Q04DX003 (ip), vehicle: saline) was 112 % of control.

In the case of `CCOC12c3c4cccc3C(=O)c3cccc(c31)C(=O)c1cccc(c12)C4=O`, the T/C [2] is reported as 95 % of control, the T/C [9] is reported as 100 % of control and the T/C [14] is reported as 100 % of control. For the same compound, the T/C [3] was 100 % of control, the T/C [10] was 100 % of control and the T/C [15] was 100 % of control. The T/C (dose: 400.0 mg/kg/injection, schedule: Q01DX001 (ip), vehicle: Klucel (hydroxypropylcellulose) (HPC)) was 109 % of control, the T/C (dose: 400.0 mg/kg/injection, schedule: Q01DX009 (ip), vehicle: Klucel (hydroxypropylcellulose) (HPC)) was 90 % of control and the T/C [17] was 91 % of control.

`CN(CCO)C1=C(N2CC2)C(=O)C(N(C)CCO)=C(N2CC2)C1=O` was tested, and the T/C (dose: 200.0 micrograms/kg/injection, schedule: Q01DX009 (ip), vehicle: saline) was 116 % of control, the T/C (dose: 400.0 micrograms/kg/injection, schedule: Q01DX009 (ip), vehicle: saline) was 157 % of control and the T/C (dose: 800.0 micrograms/kg/injection, schedule: Q01DX009 (ip), vehicle: saline) was 228 % of control.

`Cc1cccc(Nc2sc(C(=O)c3cc4cc(Cl)ccc4o3)c(N)c2C#N)c1` was tested, and the T/C [5] was 108 % of control, the T/C [6] was 102 % of control and the T/C [7] was 111 % of control.

`CCC1C2CC3C4N(C)c5ccc(Br)cc5C45CC(C2C5O)[N+]3(CC(O)CN2CCCCC2)C1O` (stereo not drawn) was tested, and the T/C [19] was 106 % of control, the T/C [18] was 115 % of control and the T/C [11] was 89 % of control and 93 % of control.

`Cc1[nH]c(=O)[nH]c(=O)c1NC(=O)c1ccccc1[N+](=O)[O-]` was tested, and the T/C [13] was 95 % of control, the T/C (dose: 12.5 mg/kg/injection, schedule: Q04DX003 (ip), vehicle: saline with Tween-80) was 92 % of control and the T/C [4] was 104 % of control. For the same compound, the T/C (dose: 25.0 mg/kg/injection, schedule: Q04DX003 (ip), vehicle: saline with Tween-80) was 92 % of control, the T/C [5] was 87 % of control and the T/C (dose: 50.0 mg/kg/injection, schedule: Q04DX003 (ip), vehicle: saline with Tween-80) was 92 % of control.

In the case of `c1ccc(Sc2cccc3ccccc23)cc1`, the T/C [6] is reported as 100 % of control, the T/C [7] is reported as 104 % of control and the T/C [16] is reported as 104 % of control.

`ClCC(Cl)CN1CCCCC1` (stereo not drawn) was tested, and the T/C [19] was 90 % of control, the T/C [18] was 86 % of control and the T/C [11] was 104 % of control.

In the case of `NC1=NCC(CSc2ccc(Cl)c(Cl)c2)O1` (stereo not drawn), the T/C (dose: 50.0 mg/kg/injection, schedule: Q04DX002 (ip), vehicle: saline + Tween-80 + alcohol) is reported as 95 % of control, the T/C (dose: 100.0 mg/kg/injection, schedule: Q04DX002 (ip), vehicle: saline + Tween-80 + alcohol) is reported as 101 % of control and the T/C (dose: 200.0 mg/kg/injection, schedule: Q04DX002 (ip), vehicle: saline + Tween-80 + alcohol) is reported as 95 % of control.

In the case of `COC(=O)C1=C(C)NC(C)=C(C(=O)OC)C1C(C)Cl` (stereo not drawn), the T/C [5] is reported as 118 % of control and the T/C [6] is reported as 109 % of control.

With `CCCCC(C)(CN(C)C)C(=O)/C=C/c1ccc(Cl)c(Cl)c1` (stereo not drawn) the T/C (dose: 6.25 mg/kg/injection, schedule: Q01DX009 (ip), vehicle: saline) was 112 % of control, the T/C [19] was 120 % of control and the T/C [18] was 118 % of control.
